Results published in article PMC9196629, “Synthesis, Characterization and Antitumor Mechanism Investigation of Heterometallic Ru(Ⅱ)-Re(Ⅰ) Complexes” (Frontiers in Chemistry, 2022).

Assays:
[1] = n-octanol/water partition coefficient by shaking flask method; assay type: physicochemical
Excerpt: Drugs exert their effects through pharmacokinetic processes such as absorption, distribution, and metabolism, which are closely related to the n-octanol/water partition coefficient of the drug (log P o/w) ([Choi et al., 2012]).

[2] = test system: HeLa (human cervical cancer cells); assay: MTT cytotoxicity assay; assay type: cell-based; conditions: 48 h incubation, mean ± SD
Protocol: (§1) The anticancer activities of RuRe-1 and RuRe-2 against four cancer cell lines: HeLa (human cervical cancer cells), HepG2 (human hepatocellular carcinoma), A549 (human lung cancer cells), A549R (cisplatin-resistant A549) and one normal cell line LO2 (human normal liver cells) were determined by 3-(4,5-dimethylthiazole)-2,5-diphenyltetraazolium bromide (MTT) assay, while the mononuclear complexes Ru-1, Ru-2, Re-1 and cisplatin were selected as controls. […] And the in vitro antiproliferative efficacies of the compounds against HeLa cells were in the following order: RuRe-2 > RuRe-1 > Re-1 > cisplatin > Ru-1 > Ru-2. […] The anticancer activity of the mononuclear rhenium complex Re-1 was between 5.6 μM and 8.0 μM, which contributed the most to the antitumor activities of the heteronuclear Ru(II)-Re(Ⅰ) metal complexes.
(§2) Cell lines and culture conditions. HeLa, HepG2, A549, A549R and LO2 cells were purchased from Nanjing KeyGen Biotech., and cultured in DMEM or RPMI 1640 complete medium at 37 ℃ with 5% CO2 atmosphere.
(§3) In vitro cytotoxicity assay. The anti-tumor activity of mononuclear complexes Ru-1, Ru-2, Re-1 and heteronuclear RuRe-1 and RuRe-2 were determined by MTT (5 mg/mL) assay. Cells were placed in 96-well plates and cultured for 24 h at 37 ℃ in a 5% CO2 incubator. After replacing the culture medium with fresh medium containing RuRe-1 or RuRe-2 at the indicated concentration, cells were cultured for 48 h. 20 μL MTT was added to each well 4 h before the end of the incubation. Subsequently, the liquid in the cell wells was poured out and 150 μL/well DMSO was added to dissolve the MTT-formazan crystals. The absorbance of living cells at 570 nm was detected.

[3] = test system: HepG2 (human hepatocellular carcinoma); assay: MTT cytotoxicity assay; assay type: cell-based; conditions: 48 h incubation, mean ± SD
Protocol: as §1, §2, §3

[4] = test system: A549 (human lung cancer cells); assay: MTT cytotoxicity assay; assay type: cell-based; conditions: 48 h incubation, mean ± SD
Protocol: as §1, §2, §3

[5] = test system: LO2 (human normal liver cells); assay: MTT cytotoxicity assay; assay type: cell-based; conditions: 48 h incubation, mean ± SD
Protocol: as §1, §2, §3

[6] = test system: A549R (cisplatin-resistant A549); assay: MTT cytotoxicity assay; assay type: cell-based, human; conditions: for IC50: MTT, 48 h incubation, mean ± SD; for fold greater ability to kill A549R cells than cisplatin: ratio of IC50 values, cisplatin / complex
Protocol: as §1, §2, §3

[7] = Stability in human serum albumin (HSA) solution by UV-Vis spectroscopy; assay type: physicochemical; conditions: 10 μM, HSA solution, 0, 24 and 48 h
Protocol: The stabilities of RuRe-1 and RuRe-2 in PBS and human serum albumin (HSA) were tested through UV–Vis spectroscopy.
Supplementary Figure 12. UV-Vis absorption spectra of RuRe-1 (10 μM), RuRe-2 (10 μM), Ru-1 (10 μM), Ru-2 (10 μM) and Re-1 (10 μM) in PBS (A) and HSA (B) solution collected at 0, 24, and 48 h, respectively.

F[P-](F)(F)(F)(F)F.F[P-](F)(F)(F)(F)F.F[P-](F)(F)(F)(F)F.[C-]#[O+].[C-]#[O+].[C-]#[O+].[Re+].[Ru+2].c1ccc(-c2ccnc3c2ccc2c(-c4ccccc4)ccnc23)cc1.c1cnc2c(c1)c1nc(-c3ccncc3)[nH]c1c1cccnc12.c1cnc2c(c1)ccc1cccnc12.c1cnc2c(c1)ccc1cccnc12 [RuRe-2, [Ru(phen)2LRe(CO)3(DIP)](PF6)3]
log P o/w [1]: 2.10 | IC50 [2]: 2.5 ± 1.3 µM | IC50 [3]: 12.5 ± 0.9 µM | IC50 [4]: 11.2 ± 0.9 µM | IC50 [5]: 28.1 ± 1.1 µM | IC50 [6]: 16.7 ± 0.8 µM | fold greater ability to kill A549R cells than cisplatin [6]: ~5.4 fold | stability in HSA (UV-Vis spectral characteristics and absorption peaks) [7]: no significant change

F[P-](F)(F)(F)(F)F.F[P-](F)(F)(F)(F)F.F[P-](F)(F)(F)(F)F.[C-]#[O+].[C-]#[O+].[C-]#[O+].[Re+].[Ru+2].c1ccc(-c2ccccn2)nc1.c1ccc(-c2ccccn2)nc1.c1ccc(-c2ccnc3c2ccc2c(-c4ccccc4)ccnc23)cc1.c1cnc2c(c1)c1nc(-c3ccncc3)[nH]c1c1cccnc12 [RuRe-1, [Ru(bpy)2LRe(CO)3(DIP)](PF6)3]
log P o/w [1]: 0.47 | IC50 [2]: 3.1 ± 0.8 µM | IC50 [3]: 10 ± 0.8 µM | IC50 [4]: 11.8 ± 0.4 µM | IC50 [5]: 25.1 ± 0.7 µM | IC50 [6]: 10.4 ± 1.2 µM | fold greater ability to kill A549R cells than cisplatin [6]: approximately 8.7 fold | stability in HSA (UV-Vis spectral characteristics and absorption peaks) [7]: no significant change
